Experimental data published in PMC10743726, “Preclinical Evaluation of a Novel High-Affinity Radioligand [^99mTc]Tc-BQ0413 Targeting Prostate-Specific Membrane Antigen (PSMA)” (International Journal of Molecular Sciences, 2023).

Columns and labels:
PSMA = conditions: read-out: Equilibrium Dissociation Constant, KD; cited from earlier work
[1] = system: PSMA-positive PC3-pip xenografts; assay: Biodistribution in PC3-pip tumor-bearing mice; conditions: 40 pmol/mouse
Description: All in vivo experiments were carried out on BALB/c nu/nu or NMRI mice purchased from Scanbur A/S (Sollentuna, Sweden). All animal studies were approved by the Ethics Committee for Animal Research in Uppsala (Sweden), following the national legislation on the protection of laboratory animals (permit 5.8.18-00473/2021, approved 26 February 2021). Prostate cancer xenografts expressing PSMA were established in BALB/c nu/nu mice via subcutaneous injection of PC3-pip cell suspension in PBS (10^7 cells/animal in 100 µL). For in vivo specificity control, 10^7 cells/animal PSMA-negative SKOV-3 or PC-3 cells were implanted. […] Four mice per data point were used in in vivo experiments; two mice per data point were used in SPECT/CT (^99mTc-labeled BQ0413) and PET/CT (^68Ga-labeled PSMA-11) imaging experiments.
Each mouse was intravenously injected with 40 pmol of [^99mTc]Tc-BQ0413 (60 kBq; mass of injected compound was adjusted with unlabeled tracer). The mice were euthanized after lethal intraperitoneal injection of ketamine/xylazine followed by exsanguination 1, 3, and 6 h pi. The organs of interest were collected, weighed, and measured for their activity content using the gamma counter. The uptake activity in organs was calculated as the percentage of injected activity per gram (%IA/g) for blood, salivary gland, lungs, liver, spleen, pancreas, stomach, small intestine, kidneys, tumor, muscle, and bone tissue and as %IA for the remaining carcass and the rest of the intestines with content.
Animals were euthanized, organs were collected, and activity uptake was measured according to the protocol described above.

O=C([O-])CN(CCN(CC(=O)[O-])Cc1cc(CCC(=O)NCCCCCC(=O)NCCCC[C@H](NC(=O)N[C@@H](CCC(=O)O)C(=O)O)C(=O)O)ccc1[O-])Cc1cc(CCC(=O)O)ccc1[O-].[68Ga+3].[OH3+] [[^68Ga]Ga-PSMA-11]
Kd (PSMA): 0.5 ± 0.2 nM
Activity in GI tract (with content) ([1]; 1 h pi): 1.6 ± 0.3 %IA/sample
Tumor-to-blood ratio ([1]; 1 h pi): 26 ± 9
Tumor-to-bone ratio ([1]; 1 h pi): 34 ± 7
Tumor-to-kidneys ratio ([1]; 1 h pi): 0.09 ± 0.02
Tumor-to-liver ratio ([1]; 1 h pi): 30 ± 14
Tumor-to-lungs ratio ([1]; 1 h pi): 7 ± 2
Tumor-to-muscle ratio ([1]; 1 h pi): 38 ± 11
Tumor-to-pancreas ratio ([1]; 1 h pi): 15 ± 3
Tumor-to-salivary gland ratio ([1]; 1 h pi): 5 ± 1
Tumor-to-small intestine ratio ([1]; 1 h pi): 42 ± 14
Tumor-to-spleen ratio ([1]; 1 h pi): 0.7 ± 0.2
Tumor-to-stomach ratio ([1]; 1 h pi): 29 ± 11
Uptake in blood ([1]; 1 h pi): 0.8 ± 0.1 %IA/g
Uptake in bone ([1]; 1 h pi): 0.60 ± 0.06 %IA/g
Uptake in kidneys ([1]; 1 h pi): 226 ± 40 %IA/g
Uptake in liver ([1]; 1 h pi): 0.7 ± 0.2 %IA/g
Uptake in lungs ([1]; 1 h pi): 3.2 ± 0.6 %IA/g
Uptake in muscle ([1]; 1 h pi): 0.54 ± 0.08 %IA/g
Uptake in pancreas ([1]; 1 h pi): 1.3 ± 0.2 %IA/g
Uptake in salivary gland ([1]; 1 h pi): 4.4 ± 0.8 %IA/g
Uptake in small intestine ([1]; 1 h pi): 0.5 ± 0.1 %IA/g
Uptake in spleen ([1]; 1 h pi): 28 ± 4 %IA/g
Uptake in stomach ([1]; 1 h pi): 0.8 ± 0.3 %IA/g
Uptake in tumor ([1]; 1 h pi): 20 ± 3 %IA/g
Uptake in tumor ([1]; 3 h pi): 20 ± 3 %IA/g

[^177Lu]Lu-PSMA-617
Kd (PSMA): 0.24 nM
